Assay results reported in publication PMC6514812, “[^18F]Fluoroethyltriazolyl Monocyclam Derivatives as Imaging Probes for the Chemokine Receptor CXCR4” (Molecules, 2019).

Experiments:
CXCR4 [1] = molecular target: T1, CXCR4 (Homo sapiens, UniProt P61073); test: Competition binding assay vs [^68Ga]Pentixafor in PC3-CXCR4 cells; details: for IC50: vs 100 nM [^68Ga]Pentixafor, PC3-CXCR4 cells, 60 min 37 °C; for Hill Slope, Competitive Binding Experiment: vs [^68Ga]Pentixafor, value ± SD
T1 construct: expressed in transfected cells; host or cells: PC3 (human prostate cancer) cells stably transduced with CXCR4
Procedure: (§1) PC3-CXCR4 cells were plated in 12-well plates at a density of 500,000 cells per well and incubated for 48 h at 37 °C/5% CO2. Prior to the binding assay the cells were incubated in fresh media and 370–555 kBq of [^68Ga]Pentixafor or [^18F]RPS-544 was added to each well. The corresponding concentration of [^68Ga]Pentixafor in each well was 100 nM, and the concentration of [^18F]RPS-544 was approximately 5 pM. Then non-radioactive ligands were added to give a final ligand concentration in the range 0.001–10,000 nM. A total of eight concentrations were studied, and each concentration was tested in triplicate. The cells were incubated for 60 min at 37 °C/5% CO2. The media was removed under suction, the cells were washed with cold PBS 1X and detached and transferred to tubes for counting in 1 M NaOH. The cells were counted in a Wizard^2 Gamma Counter (PerkinElmer, Waltham, MA, USA). Non-specific binding was subtracted, and the IC50 values were determined by assuming a simple competitive binding interaction and fitting the data to a sigmoidal Hill plot in Origin 9.0 (OriginLab, Northampton, MA, USA). Potencies are expressed as IC50 ± standard deviation (Supplemental Data, Figure S7).

CXCR4 [2] = molecular target: T1, CXCR4; test: Competition binding assay vs [^18F]RPS-544 in PC3-CXCR4 cells; details: approx. 5 pM [^18F]RPS-544; p = 0.85
Procedure: as §1

CXCR4 [3] = molecular target: T1, CXCR4; test: Saturation binding assay in PC3-CXCR4 cells; details: for Kd: saturation binding, PC3-CXCR4 cells; for Hill Slope, Saturation Binding Experiment: value ± SD
Procedure: To determine the dissociation constants, saturation binding assays were performed in the PC3-CXCR4 cells. The cells were plated as described above, and approximately 5 nM of the radioligand was added to each well. Then the corresponding non-radioactive ligand was added to give a final concentration in the range 0.001–10,000 nM. A total of eight concentrations were tested, and each concentration was tested in triplicate. The samples were washed and counted as described above. Non-specific binding was subtracted, and Kd values were determined by performing a nonlinear one site binding curve fit with equation y = (Bmax · x)/(Kd + x). Values are expressed as Kd ± standard deviation (Supplemental Data, Figure S8).

PC3-CXCR4 cells = test: Cell-associated activity in PC3-CXCR4 cells; type: cell-based, human; details: 1 h
Procedure: Maximum cell-associated activity was calculated by subtracting the cell uptake of the radioactive ligand at the highest non-radioactive ligand concentration of 10 µM (which we considered to be non-specific uptake/binding) from the cell uptake at the lowest non-radioactive ligand concentration of 10^−5 µM.

[4] = test system: PC3-CXCR4 xenograft tumors; test: Biodistribution in mice bearing bilateral PC3-WT/PC3-CXCR4 xenograft tumors; type: in vivo, BALB/c mice
Procedure: (§2) All animal studies were approved by the Institutional Animal Care and Use Committee of Weill Cornell Medicine (Protocol Number: 2015-0066) and were undertaken in accordance with the guidelines set forth by the USPHS Policy on Humane Care and Use of Laboratory Animals. Animals were housed under standard conditions in approved facilities with 12 h light/dark cycles. Food and water was provided ad libitum throughout the course of the studies. Hairless 6-to-8-week old male BALB/c inbred athymic nude mice (Jackson Laboratory, Bar Harbor, ME, USA) were inoculated bilaterally with 0.2 mL of a 1:1 mixture of 10^7 PC3-CXCR4 cells in PBS and Matrigel (Corning, Tewksbury, MA, USA) subcutaneously in the left shoulder and 0.2 mL of a 1:1 mixture of 10^7 PC3-WT cells in PBS and Matrigel subcutaneously in the right shoulder. Imaging and biodistribution studies were performed three weeks post-implantation, when tumors were approximately 100–300 mm^3.
(§3) For the biodistribution studies, tumor-bearing animals (n = 5/compound/time point) were injected intravenously with 50–100 μL of a 9% v/v EtOH/saline solution containing approximately 1.1 MBq of the radioligand. […] The mice were euthanized at 1 or 2 h p.i. and tissues including blood, heart, lungs, liver, small intestine, large intestine, stomach (with contents), spleen, pancreas, kidneys, muscle, bone, PC3-WT tumors, PC3-CXCR4 tumors, and tail were collected. All organs were weighed and placed in test tubes for counting in a Wizard^2 Gamma Counter (PerkinElmer, Waltham, MA, USA). For comparison, 1% injected activity standards were prepared and counted along with the tissue samples. The tails were counted to correct for any dose extravasation. Activity in each tissue was corrected for decay and for injected activity and expressed as percent injected dose per gram of tissue (%ID/g) ± standard error.

[5] = as above; type: in vivo, BALB/c mice
Procedure: as §2, §3

[6] = 1 h p.i., blocked by co-injection of 5 mg/kg AMD-3100

T1 sequence (P61073 whole entry): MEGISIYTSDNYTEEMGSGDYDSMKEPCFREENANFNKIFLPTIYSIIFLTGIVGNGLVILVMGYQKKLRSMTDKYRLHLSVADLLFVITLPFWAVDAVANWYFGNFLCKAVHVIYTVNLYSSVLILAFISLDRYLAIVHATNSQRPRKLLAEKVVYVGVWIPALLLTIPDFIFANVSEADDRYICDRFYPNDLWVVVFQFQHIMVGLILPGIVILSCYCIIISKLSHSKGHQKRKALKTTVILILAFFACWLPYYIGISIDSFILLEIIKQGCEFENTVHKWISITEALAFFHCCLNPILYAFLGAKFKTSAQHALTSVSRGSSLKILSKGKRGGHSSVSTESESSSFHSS

## FCCn1cc(-c2cc(CN3CCCNCCNCCCNCC3)ccc2CN2CCCNCCNCCCNCC2)nn1 [RPS-545]
CXCR4 [1]
  IC50: 0.398 ± 0.041 µM
  Hill Slope, Competitive Binding Experiment: 1.75 ± 0.33
CXCR4 [2]
  IC50 vs [^18F]RPS-544 compared with IC50 vs [^68Ga]Pentixafor: not significantly different
CXCR4 [3]
  Kd: 0.515 ± 0.068 µM
  Hill Slope, Saturation Binding Experiment: 2.01 ± 0.22
PC3-CXCR4 cells
  Cell-Associated Activity: 0.8 ± 0.1 %IA

## FCCn1cc(CNCc2ccc(CN3CCCNCCNCCCNCC3)cc2)nn1 [RPS-547]
[4]; 1 h p.i.
  Bone tissue activity: 0.52±0.04 %ID/g
  Heart tissue activity: 0.18±0.04 %ID/g
  Kidneys tissue activity: 10.73 ± 1.10 %ID/g
  Large Intestine tissue activity: 0.20±0.02 %ID/g
  Liver tissue activity: 6.59±1.00 %ID/g
  Lungs tissue activity: 0.48±0.05 %ID/g
  Muscle tissue activity: 0.14±0.01 %ID/g
  PC3-CXCR4 Tumor Uptake: 3.09 ± 0.52 %ID/g
  PC3-CXCR4 Tumor-to-Tissue Ratio Blood: 10.1 ± 0.3
  PC3-CXCR4 Tumor-to-Tissue Ratio Bone: 5.9 ± 0.8
  PC3-CXCR4 Tumor-to-Tissue Ratio Kidneys: 0.3 ± 0.2
  PC3-CXCR4 Tumor-to-Tissue Ratio Liver: 0.5 ± 0.2
  PC3-CXCR4 Tumor-to-Tissue Ratio Lungs: 6.2 ± 0.8
  PC3-CXCR4 Tumor-to-Tissue Ratio Muscle: 20.3 ± 0.3
  PC3-CXCR4 Tumor-to-Tissue Ratio PC3-WT: 1.9 ± 0.3
  PC3-WT tumor activity: 1.54±0.18 %ID/g
  Pancreas tissue activity: 0.20±0.01 %ID/g
  Small Intestine tissue activity: 0.95±0.10 %ID/g
  Spleen tissue activity: 0.53±0.02 %ID/g
  Stomach tissue activity: 0.17±0.03 %ID/g
[4]; [6]
  Bone tissue activity: 0.22±0.12 %ID/g
  Heart tissue activity: 0.14±0.19 %ID/g
  Kidneys tissue activity: 4.08±1.10 %ID/g
  Large Intestine tissue activity: 0.23±0.06 %ID/g
  Liver tissue activity: 4.13±0.50 %ID/g
  Lungs tissue activity: 0.35±0.15 %ID/g
  Muscle tissue activity: 0.18±0.35 %ID/g
  PC3-CXCR4 tumor activity: 1.16±0.12 %ID/g
  PC3-WT tumor activity: 0.86±0.10 %ID/g
  Pancreas tissue activity: 0.22±0.04 %ID/g
  Small Intestine tissue activity: 0.51±0.18 %ID/g
  Spleen tissue activity: 0.12±0.03 %ID/g
  Stomach tissue activity: 0.10±0.03 %ID/g
[4]; 1 h p.i., listed as [^18F]RPS-547
  PC3-CXCR4 Tumor Uptake: 3.1 ± 0.5 %ID/g
[4]; 2 h p.i.
  Bone tissue activity: 0.31±0.02 %ID/g
  Heart tissue activity: 0.08±0.01 %ID/g
  Kidneys tissue activity: 5.60±0.56 %ID/g
  Large Intestine tissue activity: 0.19±0.12 %ID/g
  Liver tissue activity: 5.18±0.27 %ID/g
  Lungs tissue activity: 0.24±0.02 %ID/g
  Muscle tissue activity: 0.09±0.02 %ID/g
  PC3-CXCR4 Tumor-to-Tissue Ratio Blood: 24.0 ± 0.2
  PC3-CXCR4 Tumor-to-Tissue Ratio Bone: 6.3 ± 0.4
  PC3-CXCR4 Tumor-to-Tissue Ratio Kidneys: 0.3 ± 0.1
  PC3-CXCR4 Tumor-to-Tissue Ratio Liver: 0.4 ± 0.2
  PC3-CXCR4 Tumor-to-Tissue Ratio Lungs: 8.2 ± 0.4
  PC3-CXCR4 Tumor-to-Tissue Ratio Muscle: 11.0 ± 0.3
  PC3-CXCR4 Tumor-to-Tissue Ratio PC3-WT: 2.2 ± 0.2
  PC3-CXCR4 tumor activity: 2.02±0.10 %ID/g
  PC3-WT tumor activity: 0.86±0.13 %ID/g
  Pancreas tissue activity: 0.11±0.00 %ID/g
  Small Intestine tissue activity: 0.80±0.01 %ID/g
  Spleen tissue activity: 0.36±0.04 %ID/g
  Stomach tissue activity: 0.11±0.02 %ID/g
[5]; 1 h p.i.
  Blood tissue activity: 0.28±0.06 %ID/g
[5]; [6]
  Blood tissue activity: 0.41±0.40 %ID/g
[5]; 2 h p.i.
  Blood tissue activity: 0.08±0.01 %ID/g
CXCR4 [1]
  IC50: 0.601 ± 0.118 µM
  Hill Slope, Competitive Binding Experiment: 0.97 ± 0.14
CXCR4 [3]
  Kd: 0.261 ± 0.022 µM
  Hill Slope, Saturation Binding Experiment: 1.03 ± 0.08
PC3-CXCR4 cells
  Cell-Associated Activity: 6.7 ± 2.8 %IA

## FCCn1cc(-c2cc(CNCc3ccccn3)ccc2CN2CCCNCCNCCCNCC2)nn1 [RPS-533]
[4]; 1 h p.i.
  Bone tissue activity: 1.22±0.03 %ID/g
  Heart tissue activity: 0.57±0.05 %ID/g
  Kidneys tissue activity: 12.17 ± 0.78 %ID/g
  Large Intestine tissue activity: 0.23±0.02 %ID/g
  Liver tissue activity: 3.69±0.21 %ID/g
  Lungs tissue activity: 0.60±0.08 %ID/g
  Muscle tissue activity: 0.67±0.08 %ID/g
  PC3-CXCR4 Tumor Uptake: 1.93 ± 0.18 %ID/g
  PC3-CXCR4 Tumor-to-Tissue Ratio Blood: 6.9 ± 0.2
  PC3-CXCR4 Tumor-to-Tissue Ratio Bone: 1.4 ± 0.7
  PC3-CXCR4 Tumor-to-Tissue Ratio Kidneys: 0.2 ± 0.1
  PC3-CXCR4 Tumor-to-Tissue Ratio Liver: 0.5 ± 0.1
  PC3-CXCR4 Tumor-to-Tissue Ratio Lungs: 3.3 ± 0.4
  PC3-CXCR4 Tumor-to-Tissue Ratio Muscle: 2.2 ± 0.3
  PC3-CXCR4 Tumor-to-Tissue Ratio PC3-WT: 2.0 ± 0.4
  PC3-WT tumor activity: 0.91±0.19 %ID/g
  Pancreas tissue activity: 0.44±0.02 %ID/g
  Small Intestine tissue activity: 2.19±0.05 %ID/g
  Spleen tissue activity: 0.52±0.02 %ID/g
  Stomach tissue activity: 0.17±0.04 %ID/g
[5]; 1 h p.i.
  Blood tissue activity: 0.30±0.06 %ID/g
CXCR4 [1]
  IC50: 0.356 ± 0.1 µM
  Hill Slope, Competitive Binding Experiment: 1.07 ± 0.36
CXCR4 [2]
  IC50 vs [^18F]RPS-544 compared with IC50 vs [^68Ga]Pentixafor: not significantly different
CXCR4 [3]
  Kd: 0.366 ± 0.07 µM
  Hill Slope, Saturation Binding Experiment: 1.12 ± 0.05
PC3-CXCR4 cells
  Cell-Associated Activity: 2.1 ± 0.4 %IA
